A short description of this series: Conformational equilibrium of cyclic and open chain forms in aqueous solution. It counts as physicochemical. The conditions noted are these: at equilibrium at pH 7.0. An excerpt: The open, active, inhibitory chain species is favored at low pH while the cyclized structure is favored at neutral pH. The reaction is fully reversible: the open chain becomes predominant at low pH. The open chain to cyclic species reaction involves a trans to cis isomerization of the proline and the formation of a new N—B bond. […] Cyclization liberates one equivalent of H+ thereby explaining the requirement for base in the cyclization reaction and acid in the opening reaction. […] G. Gutheil and W. W. Bachovchin, Separation of L-Pro-DL-boroPro into Its Component Diastereomers and Kinetic Analysis of Their Inhibition of Dipeptidyl Peptidase IV. A New Method for the Analysis of Slow, Tight-Binding Inhibition, Biochemistry 32, 8723-8731 (1993)).

Each structure is given as a SMILES string.

Regarding `CC(C)C(N)C(=O)N1CCCC1B(O)O` (centres unmarked) [Val-boroPro], the “fraction existing as the open chain, inhibitory species” value is reported as “less than 0.1%”.

With `O=C(C1CCCN1)N1CCCC1B(O)O` (centres unmarked) [Pro-boroPro], the “fraction existing as the open chain, inhibitory species” value is reported as “less than 1%”.

Values taken from patent US7265118B2, “Regulation of substrate activity” (Point Therapeutics, Inc., priority 1998, dated 2007).
